This experiment addresses T1, peptide AC15 (Mus musculus, UniProt P02469).
T1 construct: residues 202-218 from the B1 chain of laminin; The single letter amino acid code for this polypeptide is RIQNLLKITNLRIKFVK; made in house; host or cells: chemical solid-phase (Merrifield) synthesis, no expression host
Kind of experiment: Heparin/peptide interaction specificity: competition of 3H-heparin binding to coated peptide AC15 by glycosaminoglycans. Conditions: 3 μg per well of peptide AC15 coated; various amounts of non-radioactive glycosaminoglycan; 2 h, 37° C.; FIG. 9. The procedure:
To check whether charge was the main factor in the interaction between heparin and peptide AC15 or whether the heparin structure was also critical to this interaction, heparin along with one other sulfated glucosaminoglycan, chondroitin sulfate were used in competition experiments. A standard amount of 3 μg per well of peptide AC15 was coated on 96-well plates as described above. Wells were treated for two hours with 2 mg/ml BSA in wash buffer. Then, a final volume of 50 μl was added to each well, containing a standard amount of ^3 H-heparin (5,000 cpm per well) and various amounts of non-radioactive heparin, and chondroitin sulfate. After incubating for two hours at 37° C., the wells were washed and radioactivity was counted as described above in Example 1.

As to heparin, the “competition for the binding of tritiated heparin to peptide AC15” value was “able to compete for the binding of tritiated heparin to peptide AC15 at very low concentrations”.

In the case of chondroitin sulfate, the “competition for the binding of tritiated heparin to peptide AC15” value is on record as “cannot mimic this effect even at very high concentrations”.

Source of the values: US5120828A, “Synthetic polypeptide with laminin activity” (Regents of the University of Minnesota, priority 1989, dated 1992).
